What was measured:
[1] = Evaluation of hydrogen peroxide removal (OxiSelect hydrogen peroxide assay kit, ADHP/HRP fluorescence); type: biochemical; conditions: as the amount of Compound A increased (doubling dilutions from 10 µM); 4 µM hydrogen peroxide solution; 30 minutes at room temperature; control (Compound A: 0 µM) set as 100%
Method: The resulting Compound A (EGT-X) was subjected to several doubling dilutions from 10 µM with the buffer provided with a kit (OxiSelect hydrogen peroxide assay kit (manufactured by CELL BIOLABS, Inc.)), and 25 µL each of the resulting solutions was added to a 96 well plate. Also, a 4 µM solution in which hydrogen peroxide was diluted with the buffer provided with the kit was prepared, and 25 µL each of said solution was added to the 96 well plate. Further, a blank was prepared under the same conditions except for no hydrogen peroxide was added.
Subsequently, according to the protocol described in the kit, 50 µL each of a mixture of ADHP (10-acetyl-3,7-dihydroxyphenoxazine) and HRP(horseradish peroxidase) provided with the kit was added thereto, and the resulting mixture was stirred. After incubated at room temperature for 30 minutes, the fluorescence intensity was measured under the condition of excitation wavelength of 530 nm and fluorescence wavelength of 590 nm. The blank value was subtracted from each measurement value to calculate each value. The percentage values when EGT-X was added were calculated based on the control (Compound A: 0 µM) value set as 100%, and the results were plotted in a graph. (Figures 3 and 4).

HEK293 cells = assay: Evaluation of cytotoxicity inhibition: hydrogen peroxide cytotoxicity against HEK293 cells in the presence of EGT-X (WST-1); type: cell-based; conditions: hydrogen peroxide 0.0015%, cultured 24 hours, WST-1 cell viability
Method: After 24 hours, 50 µL each of EGT-X dissolved in a DMEM and hydrogen peroxide dissolved in a DMEM was added to the plate, so that the hydrogen peroxide concentration would be 0 for the control and 0.0015% for the others, and the EGT-X concentration would be those shown in Figures (Figures 5 and 6). […] The absorbance at 450 nm was measured.

With `C[N+](C)(C)[C@@H](Cc1c[nH]c(Sc2[nH]c(=S)[nH]c2C[C@@H](C(=O)[O-])[N+](C)(C)C)n1)C(=O)[O-]` [Compound A] the “amount of the residual hydrogen peroxide” value [1] was “decreased” and the “concentration of EGT-X in the presence of which the cytotoxicity caused by hydrogen peroxide was inhibited” value (HEK293 cells) was no less than 125 µM.
